pEC50: −log10 of the molar value.
Target: T1, human mAChR M1 (Homo sapiens, UniProt P11229)
T1 construct: host or cells: CHO-K1
T1 sequence (P11229 1-460): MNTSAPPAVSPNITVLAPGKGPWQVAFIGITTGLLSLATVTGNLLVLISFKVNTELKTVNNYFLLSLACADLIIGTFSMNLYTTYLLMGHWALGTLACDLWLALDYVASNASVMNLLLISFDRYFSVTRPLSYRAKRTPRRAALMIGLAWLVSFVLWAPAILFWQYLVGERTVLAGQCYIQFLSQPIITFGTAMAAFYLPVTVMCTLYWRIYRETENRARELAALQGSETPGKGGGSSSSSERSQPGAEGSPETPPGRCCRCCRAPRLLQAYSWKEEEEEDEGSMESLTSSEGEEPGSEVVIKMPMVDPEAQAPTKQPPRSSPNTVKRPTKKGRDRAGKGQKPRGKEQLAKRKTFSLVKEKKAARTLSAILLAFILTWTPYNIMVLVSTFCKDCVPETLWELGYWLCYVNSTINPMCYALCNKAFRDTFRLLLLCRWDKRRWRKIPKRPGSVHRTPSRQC
Assay: mAChR M1 cell-based functional assay (calcium mobilization, Fluo-4, FDSS)
Settings: CHO-K1 cells stably expressing hM1; for Emax: EC20 acetylcholine response, read-out: Human M1 Emax; for pEC50: positive allosteric modulator activity as increase in the EC20 acetylcholine response
Summary of the method: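 CHO-K1 cells stably expressing muscarinic receptor, loaded with Fluo-4; 11-point 1:3 compound series added and calcium flux read over 300 s at 1 Hz. Agonism from direct calcium rise, PAM activity as potentiation of EC20 acetylcholine, antagonism as decrease of EC80 acetylcholine; four-parameter logistic fits.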

Row | Compound | Emax [%] | pEC50
1 | Cn1cc(-c2ccc(Cc3cc(C(=O)NC4CC(F)C4)nc4sccc34)cn2)cn1 (centres unmarked) [Compound 125, N-(3-fluorocyclobutyl)-4-[[6-(1-methylpyrazol-4-yl)-3-pyridyl]methyl]thieno[2,3-b]pyridine-6-carboxamide] | 58.6 | 6.03
2 | Cn1cc(-c2ccc(Cc3cc(C(=O)NC4CC(F)(F)C4)nc4sccc34)cn2)cn1 [Compound 126, N-(3,3-difluorocyclobutyl)-4-[[6-(1-methylpyrazol-4-yl)-3-pyridyl]methyl]thieno[2,3-b]pyridine-6-carboxamide] | 63.4 | 6.57
3 | COCCNC(=O)c1cc(Cc2ccc(-c3cnn(C)c3)nc2)c2ccsc2n1 [Compound 127, N-(2-methoxyethyl)-4-[[6-(1-methylpyrazol-4-yl)-3-pyridyl]methyl]thieno[2,3-b]pyridine-6-carboxamide] | 63.8 | 6.57
4 | COCC(C)NC(=O)c1cc(Cc2ccc(-c3cnn(C)c3)nc2)c2ccsc2n1 (centres unmarked) [Compound 128, N-(2-methoxy-1-methyl-ethyl)-4-[[6-(1-methylpyrazol-4-yl)-3-pyridyl]methyl]thieno[2,3-b]pyridine-6-carboxamide] | 60.8 | 6.80
5 | Cc1nc(-c2ccc(Cc3cc(C(=O)N[C@H]4CCCC[C@@H]4O)nc4sccc34)cc2)co1 [Compound 129, N-[(1S,2S)-2-hydroxycyclohexyl]-4-[[4-(2-methyloxazol-4-yl)phenyl]methyl]thieno[2,3-b]pyridine-6-carboxamide] | 63.9 | 6.33
6 | Cc1nc(-c2ccc(Cc3cc(C(=O)N[C@H]4CCOC[C@@H]4O)nc4sccc34)cc2)co1 [Compound 130, N-[(3R,4S)-3-hydroxytetrahydropyran-4-yl]-4-[[4-(2-methyloxazol-4-yl)phenyl]methyl]thieno[2,3-b]pyridine-6-carboxamide] | 41.4 | 7.22
7 | Cc1nc(-c2ccc(Cc3cc(C(=O)NC4CCOC(C)(C)C4)nc4sccc34)cc2)co1 (centres unmarked) [Compound 131, N-(2,2-dimethyltetrahydropyran-4-yl)-4-[[4-(2-methyloxazol-4-yl)phenyl]methyl]thieno[2,3-b]pyridine-6-carboxamide] | 33.3 | 
8 | Cc1nc(-c2ccc(Cc3cc(C(=O)NC4CC(C)OC(C)C4)nc4sccc34)cc2)co1 (centres unmarked) [Compound 132, N-(2,6-dimethyltetrahydropyran-4-yl)-4-[[4-(2-methyloxazol-4-yl)phenyl]methyl]thieno[2,3-b]pyridine-6-carboxamide] | 58.9 | 5.98
9 | Cc1nc(-c2ccc(Cc3cc(C(=O)NC4CCOCC4(C)C)nc4sccc34)cc2)co1 (centres unmarked) [Compound 133, N-(3,3-dimethyltetrahydropyran-4-yl)-4-[[4-(2-methyloxazol-4-yl)phenyl]methyl]thieno[2,3-b]pyridine-6-carboxamide] | 62.3 | 5.63
10 | Cc1nc(-c2ccc(Cc3cc(C(=O)NC4CCOCC4C)nc4sccc34)cc2)co1 (centres unmarked) [Compound 134, 4-[[4-(2-methyloxazol-4-yl)phenyl]methyl]-N-(3-methyltetrahydropyran-4-yl)thieno[2,3-b]pyridine-6-carboxamide] | 51.4 | 5.91
11 | Cc1nc(-c2ccc(Cc3cc(C(=O)NCC4CCOCC4)nc4sccc34)cc2)co1 [Compound 135] | 57.7 | 6.27
12 | Cc1nc(-c2ccc(Cc3cc(C(=O)N[C@H]4CCOC4)nc4sccc34)cc2)co1 [Compound 136, 4-[[4-(2-methyloxazol-4-yl)phenyl]methyl]-N-[(3S)-tetrahydrofuran-3-yl]thieno[2,3-b]pyridine-6-carboxamide] | 60.6 | 6.21
13 | Cc1nc(-c2ccc(Cc3cc(C(=O)N[C@@H]4CCOC4)nc4sccc34)cc2)co1 [Compound 137, 4-[[4-(2-methyloxazol-4-yl)phenyl]methyl]-N-[(3R)-tetrahydrofuran-3-yl]thieno[2,3-b]pyridine-6-carboxamide] | 59.5 | 5.72
14 | Cc1nc(-c2ccc(Cc3cc(C(=O)NCC4CCOC4)nc4sccc34)cc2)co1 (centres unmarked) [Compound 138, 4-[[4-(2-methyloxazol-4-yl)phenyl]methyl]-N-(tetrahydrofuran-3-ylmethyl)thieno[2,3-b]pyridine-6-carboxamide] | 59.5 | 5.50
15 | Cc1nc(-c2ccc(Cc3cc(C(=O)NC4CC5(COC5)C4)nc4sccc34)cc2)co1 [Compound 139, 4-[[4-(2-methyloxazol-4-yl)phenyl]methyl]-N-(2-oxaspiro[3.3]heptan-6-yl)thieno[2,3-b]pyridine-6-carboxamide] | 60.5 | 6.41
16 | Cc1nc(-c2ccc(Cc3cc(C(=O)NC4(C)COC4)nc4sccc34)cc2)co1 [Compound 140, 4-[[4-(2-methyloxazol-4-yl)phenyl]methyl]-N-(3-methyloxetan-3-yl)thieno[2,3-b]pyridine-6-carboxamide] | 59.2 | 6.62
17 | Cc1nc(-c2ccc(Cc3cc(C(=O)NC4CC(F)C4)nc4sccc34)cc2)co1 (centres unmarked) [Compound 141] | 35.9 | < 5.00
18 | Cc1nc(-c2ccc(Cc3cc(C(=O)NCC4CCN4)nc4sccc34)cc2)co1 (centres unmarked) [Compound 142, N-(azetidin-2-ylmethyl)-4-[[4-(2-methyloxazol-4-yl)phenyl]methyl]thieno[2,3-b]pyridine-6-carboxamide] | 60.1 | 5.63
19 | COCCNC(=O)c1cc(Cc2ccc(-c3coc(C)n3)cc2)c2ccsc2n1 [Compound 143, N-(2-methoxyethyl)-4-[[4-(2-methyloxazol-4-yl)phenyl]methyl]thieno[2,3-b]pyridine-6-carboxamide] | 60.8 | 6.55
20 | COCC(C)NC(=O)c1cc(Cc2ccc(-c3coc(C)n3)cc2)c2ccsc2n1 (centres unmarked) [Compound 144, N-(2-methoxy-1-methyl-ethyl)-4-[[4-(2-methyloxazol-4-yl)phenyl]methyl]thieno[2,3-b]pyridine-6-carboxamide] | 64.2 | 6.02
21 | Cn1ccc(-c2ccc(Cc3cc(C(=O)NC4CCOCC4)nc4c3ccn4C)cn2)n1 [Compound 145, 1-methyl-4-[[6-(1-methylpyrazol-3-yl)-3-pyridyl]methyl]-N-tetrahydropyran-4-yl-pyrrolo[2,3-b]pyridine-6-carboxamide] | 77.6 | 6.33
22 | Cn1ccc(-c2ccc(Cc3cc(C(=O)NC4CCOC(C)(C)C4)nc4c3ccn4C)cn2)n1 (centres unmarked) [Compound 146, N-(2,2-dimethyltetrahydropyran-4-yl)-1-methyl-4-[[6-(1-methylpyrazol-3-yl)-3-pyridyl]methyl]pyrrolo[2,3-b]pyridine-6-carboxamide] | 79.3 | 6.28
23 | Cn1ccc(-c2ccc(Cc3cc(C(=O)NC4CCOCC4(C)C)nc4c3ccn4C)cn2)n1 (centres unmarked) [Compound 147] | 81.6 | 6.72
24 | CC1CC(NC(=O)c2cc(Cc3ccc(-c4ccn(C)n4)nc3)c3ccn(C)c3n2)CC(C)O1 (centres unmarked) [Compound 148, N-(2,6-dimethyltetrahydropyran-4-yl)-1-methyl-4-[[6-(1-methylpyrazol-3-yl)-3-pyridyl]methyl]pyrrolo[2,3-b]pyridine-6-carboxamide] | 82.4 | 6.03
25 | Cn1ccc(-c2ccc(Cc3cc(C(=O)NC4CC5(COC5)C4)nc4c3ccn4C)cn2)n1 [Compound 149, 1-methyl-4-[[6-(1-methylpyrazol-3-yl)-3-pyridyl]methyl]-N-(2-oxaspiro[3.3]heptan-6-yl)pyrrolo[2,3-b]pyridine-6-carboxamide] | 78.1 | 6.43
26 | Cn1ccc(-c2ccc(Cc3cc(C(=O)NCC4CCOCC4)nc4c3ccn4C)cn2)n1 [Compound 150] | 77.7 | 6.09
27 | Cn1ccc(-c2ccc(Cc3cc(C(=O)NCC4CCOC4)nc4c3ccn4C)cn2)n1 (centres unmarked) [Compound 151, 1-methyl-4-[[6-(1-methylpyrazol-3-yl)-3-pyridyl]methyl]-N-(tetrahydrofuran-3-ylmethyl)pyrrolo[2,3-b]pyridine-6-carboxamide] | 76.4 | 5.92
28 | Cn1ccc(-c2ccc(Cc3cc(C(=O)NC4(C)COC4)nc4c3ccn4C)cn2)n1 [Compound 152, 1-methyl-N-(3-methyloxetan-3-yl)-4-[[6-(1-methylpyrazol-3-yl)-3-pyridyl]methyl]pyrrolo[2,3-b]pyridine-6-carboxamide] | 45.5 | < 5.00
29 | Cn1ccc(-c2ccc(Cc3cc(C(=O)N[C@H]4CCC[C@@H]4O)nc4c3ccn4C)cn2)n1 [Compound 153, N-[(1S,2S)-2-hydroxycyclopentyl]-1-methyl-4-[[6-(1-methylpyrazol-3-yl)-3-pyridyl]methyl]pyrrolo[2,3-b]pyridine-6-carboxamide] | 75.1 | 6.72
30 | Cn1ccc(-c2ccc(Cc3cc(C(=O)NC4CC(F)(F)C4)nc4c3ccn4C)cn2)n1 [Compound 154, N-(3,3-difluorocyclobutyl)-1-methyl-4-[[6-(1-methylpyrazol-3-yl)-3-pyridyl]methyl]pyrrolo[2,3-b]pyridine-6-carboxamide] | 66.1 | 5.60

From US10899759B2, “Positive allosteric modulators of the muscarinic acetylcholine receptor M1” (Vanderbilt University, priority 2016, dated 2021)
